Results published in patent US20230063457A1, “DNA-PK INHIBITING COMPOUNDS” (Provincial Health Services Authority, priority 2019, published 2023).

Legend:
[1] = target: DNA-PK kinase (Homo sapiens, UniProt P78527); assay: Inhibition of DNA-PK kinase activity (ADP-Glo); assay type: biochemical; details: averaged values over all measurements on all batches; 150 μM ATP, 1 hour at 25° C.
Protocol: Inhibition of DNA-PK Kinase Activity Assay buffer was 50 mM Hepes pH 7.5 containing 0.1 mg/ml BSA (albumin from bovine serum), 50 μM DTT (dithiothreitol), 20 mM MgCl2 and 10 μg/ml calf thymus DNA (activation buffer). Kinase reaction was carried out in OptiPlate 384 plates (PerkinElmer 6007299). All compounds tested were dissolved in dimethyl sulfoxide (DMSO) and further dilutions were made in assay buffer. Final DMSO concentration was 1% (v/v). Pre-incubation consisted of compound (1% DMSO in control and blank wells) and 24 ng/well DNA-PK kinase to allow the compounds to bind the enzyme (with buffer in the blank wells) for 15 minutes; after this time 150 μM Adenosine-5′-triphosphate (ATP) and 0.2 μg/μl DNA-PK substrate were added to commence the kinase reaction. Incubations were carried out for 1 hour at 25° C. Kinase activity was determined by using ADP-Glo™ reagent from Promega according to the manufacturer's instructions. The light generated was measured using a luminometer (EnVision, PerkinElmer). Signal obtained in the wells containing blank samples was subtracted from all other wells and IC50 values were determined by fitting a sigmoidal curve to % inhibition of control versus Log10 compound concentration.

[2] = target: T1, Phospho-DNA-PK in FaDu Cells (Homo sapiens, UniProt P78527); assay: Effect of compounds on phospho-DNA-PK in FaDu cells (MesoScale sandwich immunoassay); assay type: cell-based; details: 1 hour pre-incubation, 1 μg/ml Neocarzinostatin 2 hours, averaged values, read-out: MSD FaDu IC50
T1 construct: host or cells: FaDu
Protocol: Effect of Compounds on Phospho-DNA-PK in FaDu Cells
All compounds tested were dissolved in DMSO and further dilutions were made in culture medium. Final DMSO concentration was 0.3% (v/v). The human FaDu cells (ATCC) were cultured in MEM medium supplemented with Glutamax and 10% fetal calf serum (PAA). Cells were routinely maintained at densities of 0.2×10^6 cells per ml at 37° C. in a humidified 5% CO2, 95% air atmosphere. Cells were passaged twice a week, splitting back to obtain the low density. Cells were seeded in 96 well plates (Corning 3904) at 1×10^6 cells per ml media in a volume of 50 μl per well. Seeded cells were incubated at 37° C. in a humidified 5% CO2, 95% air atmosphere for 24 hours. Compounds were added (25 μl) to the cells and pre-incubated for 1 hour. 1 μg/ml DNA-damaging agent Neocarzinostatin (NCS) was added (25 μl) to a final volume of 100 μl and incubated for 2 hours at 37° C. in a humidified 5% CO2, 95% air atmosphere. After this period of time plates were removed from the incubator and the 100 μl dilutions were removed from the wells gently, prior to the addition of 75 μl cold RIPA lysis buffer with protease and phosphatase inhibitors to achieve the cells lysis, followed by shaking on a plate shaker at 4° C. for 30 minutes. At the end of this incubation, lysate was assessed for phospho-DNA-PK levels by sandwich immune-assay carried out in anti-mouse antibody coated MesoScale plates. […] Signal obtained in the wells containing blank samples was subtracted from all other wells and IC50 values were determined by fitting a sigmoidal curve to % inhibition of control versus Logo compound concentration.

Compound	IC50 [1] [nM]	IC50 [2] [nM]
N#Cc1ccnc(NCC2CCN(c3nc(N4CCOCC4)cc4ncccc34)CC2)n1 [Example 108]	69	3380
COC(=O)c1cc(N)nc(NCC2CCN(c3nc(N4CCOCC4)cc4ncccc34)CC2)n1 [Example 100]	32	2360
F[C@H]1CN(c2ncn[nH]2)CC[C@@H]1Oc1nc(N2CCOCC2)cc2ncccc12 [Example 156]	93	875
c1cnc(N[C@H]2[C@@H]3CN(c4nc(N5CCOCC5)cc5ncccc45)C[C@@H]32)nc1 [Example 12]	70	2550
Cc1cc(C)nc(NCC2CCN(c3nc(N4CCOCC4)cc4ncccc34)CC2)n1 [Example 117]	125	1930
c1cnc2cc(N3CCOCC3)nc(O[C@H]3CC[C@@H](n4ccnn4)CC3)c2c1 [Example 79]	6	373
c1cnc2cc(N3CCOCC3)nc(N3CCC(CNc4nnc[nH]4)CC3)c2c1 [Parent compound 153]	30	2490
OCCC1CCN(c2nc(N3CCOCC3)cc3ncccc23)CC1 [Example 15]	108	2150
CNc1cnc2cc(N3CCOCC3)nc(O[C@H]3CC[C@@H](n4ccnc4)CC3)c2c1 [Parent compound 171]	10	270
c1cnc(NCCC2CCN(c3nc(N4CCOCC4)cc4ncccc34)CC2)nc1 [Example 130]	48	2530
c1cnc2cc(N3CCOCC3)nc(O[C@H]3CC[C@@H](c4ncc[nH]4)CC3)c2c1 [Example 75]	5	57
c1cnc2cc(N3CCOCC3)nc(N3CCC(CNc4cnccn4)CC3)c2c1 [Example 114]	117	9670
c1cnc2cc(N3CCOCC3)nc(OCC3CCN(c4ncn[nH]4)CC3)c2c1 [Parent compound 154]	26	1070
Fc1cnc(NCC2CCN(c3nc(N4CCOCC4)cc4ncccc34)CC2)nc1 [Example 104]	50	3020

Continued by falling IC50 [1], values first:

IC50 [1] [nM]	IC50 [2] [nM]	Compound
188	3840	CC(=O)N1CCN(c2nc(N3CCOCC3)cc3ncccc23)CC1 [Example 84]
155	11400	c1cncc(NCC2CCN(c3nc(N4CCOCC4)cc4ncccc34)CC2)c1 [Example 133]
125	2890	C[C@H]1CN(c2ncn[nH]2)CC[C@H]1Oc1nc(N2CCOCC2)cc2ncccc12 [Parent compound 161]
120	7990	N#Cc1cccnc1NCC1CCN(c2nc(N3CCOCC3)cc3ncccc23)CC1 [Example 115]
114	6600	Oc1ccnc(NCC2CCN(c3nc(N4CCOCC4)cc4ncccc34)CC2)n1 [Example 113]
112	2030	CCOC(=O)c1cnc(NCC2CCN(c3nc(N4CCOCC4)cc4ncccc34)CC2)nc1 [Example 112]
82	10600	Fc1ccnc(NCC2CCN(c3nc(N4CCOCC4)cc4ncccc34)CC2)c1 [Example 132]
82	832	c1cnc(NC2CC3(CCN(c4nc(N5CCOCC5)cc5ncccc45)C3)C2)nc1 (mixture of isomers) [Example 1]
15	724	NC(=O)c1ccnc(NCC2CCN(c3nc(N4CCOCC4)cc4ncccc34)CC2)n1 [Example 99]
9	361	NC(=O)[C@H]1CC[C@@H](Oc2nc(N3CCOCC3)cc3ncccc23)CC1 [Example 3]
8	232	COc1cnc2cc(N3CCOCC3)nc(O[C@H]3CC[C@@H](n4cc(F)cn4)CC3)c2c1 [Parent compound 170]
6	104	c1cnc2cc(N3CCOCC3)nc(O[C@H]3CC[C@@H](n4ccnc4)CC3)c2c1 [Example 77]
2	210	[2H]C1([2H])OC([2H])([2H])C([2H])([2H])N(c2cc3ncccc3c(O[C@H]3CC[C@@H](c4nc[nH]n4)CC3)n2)C1([2H])[2H] [Example 65]
